Each structure is given as a SMILES string. Structures can show the parent of a compound that is named as a salt. Where two headings read alike, the source gives them in different places.

The test system of experiment [1] is Female CFLP mice. Briefly: Anti-hyperglycaemic activity: subcutaneous glucose load in fasted mice, area under blood glucose curve. The experiment is classed as in vivo. The note with it: 1 μ moles/kg po, glucose 1 g/kg sc, 2 hour period, vs water control. As for the experimental part: Female CFLP mice, each weighing approximately 25 g, were fasted for 24 hours prior to the study. The compounds under study were administered orally as an aqueous solution to each of 6 mice. 6 mice were given water as a control. 30 minutes later a blood sample (20 µl) was obtained from the tail for the analysis of blood glucose. Immediately after taking this blood sample, glucose (1 g/kg body weight) was administered subcutaneously to each mouse. Blood samples were then obtained from each mouse at 30 minute intervals for 120 minutes.
Compounds that produced a significant (P<0.05) reduction of blood glucose, compared with control mice given water, at any time interval, were considered active. The area under the blood glucose curve over the 2 hour period after the administration of the glucose was calculated for each compound and compared with the value for control animals.

A further experiment has as its system rat ear. Briefly: Anti-inflammatory activity: croton oil induced inflammation of the rat ear. The experiment is classed as in vivo. To be noted: 1.35 mg/rat ear, topical in 1% croton oil in tetrahydrofuran, ear weight after 6 hours; active = significant (5% level) reduction. Here is the method: The method used is based on that described by G. Tonelli eta/ (Endocrinology, 77, 625-634, 1965). An inflammation is induced in the rat ear by the application of 50 µl of a 1% solution of croton oil in tetrahydrofuran, test compounds being dissolved in the irritant vehicle. After 6 hours the inflammation is assessed by killing the animals and weighing the ears. Topical anti-inflammatory activity of a compound is generally considered to be shown when a significant (5% level) reduction in ear weight is seen compared to non-drug treated control.

In experiment [2] the test system is platelet aggregation in human whole blood. Briefly: Collagen-induced platelet aggregation in human whole blood in vitro. The experiment is classed as cell-based. The note with it: Final Concentration in Whole Blood 100 μM; collagen EC50 in presence of compound divided by control EC50. Here is the method:
Collagen-induced platelet aggregation in human whole blood in vitro.
Collagen added to stirred citrated blood causes platelet aggregation. As the platelets aggregate, the concentration of single platelets falls. […] Inhibitors of aggregation, such as aspirin and dipyridamole, reduce the response to collagen.
Collagen (Hormon-Chemie, Munich) or 154 mM NaCl (control) was added to each aliquot of blood stirred at 1100 rpm in an aggregometer at 37° after 3 mins pre-incubation with compound or appropriate solvent. Aggregates were fixed by addition of 0.5 vol 4.5% formaldehyde or 0.05 vol phosphate-buffered glutaraldehyde. Single platelets were counted electronically. Responses, expressed as per cent fall in platelet count, were obtained to a range of collagen concentrations. The concentration producing 50% maximal effect (EC50) was estimated from log10 concentration-response curves. Dose-ratios were calculated by dividing the EC50 obtained in the presence of compound under test by the control EC50.

In experiment [3] the test system is Female CFLP mice. Briefly: Effect on energy expenditure and food intake of mice. The experiment is classed as in vivo. To be noted: Mus musculus, po, 21 h.
Protocol: Female CFLP mice each weighing approximately 24 g, were given food and water ad lib before and during the experiment. The compounds were dissolved in water by addition of one mole of hydrochloric acid per mole of compound and these solutions were administered orally to each of 12 mice. A further 12 mice were dosed orally with water. The mice were placed in boxes through which air was drawn and the oxygen content of the air leaving the boxes was measured. […] The food intake of the mice was measured over this same period of 21 hours. The results are expressed as a percentage of the mean food intake or rate of energy expenditure of the mice dosed with water.

Consider `CNCCOc1ccc(C[C@@H](C)NC[C@H](O)c2cccc(C(F)(F)F)c2)cc1` [Example 24, N-[2-(4-(2-Methylaminoethoxy)phenyl)-1-methylethyl]-2-hydroxy-2-(3-trifluoromethylphenyl)ethanamine dihydrochloride (RR,SS) diastereoisomer], for which, in the experiment with Female CFLP mice [1], the “Reduction in area under Blood glucose curve (%)” value came to 47%. The outcome with rat ear was Active. The Dose-Ratio in experiment [2] was 5.9. For the same compound, the response vs control in vivo at 6.6 mg/kg worked out at 139% with Female CFLP mice [3] (read-out: Mean Energy Expenditure (%)) and 102% in the experiment on Female CFLP mice [3] (read-out: Mean Food Intake (%)).

(Values after EP0070133B1, “Secondary phenylethanol amines, processes for their preparation and their pharmaceutical application” (priority 1981, dated 1983).)
